Drawing on PubChem BioAssay (NCI), this text covers TGI and GI50 for 13 molecules.

Among the test systems are SK-OV-3 ovarian; RXF 393 renal; SN12C renal; NCI-H522 lung; SR leukemia; HT29 colon; ACHN renal; SF-295 CNS; MOLT-4 leukemia; MDA-MB-435.
Holding throughout (experiment): growth of human tumour cells (NCI), 48 h

Each structure is given as a SMILES string. Several values for one entry are separate records, joined by “and”; a condition that tells them apart may be missing. Identical values can stand only once.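 Step 1: Grow cells in 96-well plates. Step 2: Expose to compound for 48 hours at 5 concentrations. Step 3: Interpolate endpoints linearly; if unreached, use highest concentration. GI50 marks 50% less growth. TGI is the concentration that stops growth completely.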

With `O=C(/C=C/c1cccc(Oc2ccccc2)c1)NCc1ccc(C(=O)NCc2ccccc2)cc1`, the TGI in the test with SK-OV-3 ovarian is 29.8 µM; in the test on RXF 393 renal, 41 µM; with SN12C renal, above 100 µM; with NCI-H522 lung, above 100 µM; in the test with SR leukemia, above 100 µM; in the test on HT29 colon, above 100 µM. Besides, the TGI in the test with ACHN renal is above 100 µM; in the test with SF-295 CNS, 79.4 µM; in the test on MOLT-4 leukemia, above 100 µM; in the test with MDA-MB-435 it was above 100 µM.
With `CCCCCCCCCCCCCCCCNC(=O)C(=O)/C=C(\O)c1ccc(C)cc1`, the TGI in the test with SK-OV-3 ovarian, in the test on RXF 393 renal, in the test with SN12C renal, in the test with NCI-H522 lung, with SR leukemia and in the test on HT29 colon was above 10 µM in each case. In addition, the TGI in the test on ACHN renal, in the test on SF-295 CNS, in the test on MOLT-4 leukemia and with MDA-MB-435 was above 10 µM throughout.
As for `CN(Cc1cnc2nc(N)nc(N)c2n1)c1ccc(C(=O)N[C@@H](CCC(=O)O)C(=O)O)cc1`, the TGI in the test with SK-OV-3 ovarian is above 250 µM; in the test with RXF 393 renal it was 215 µM and > 250 µM; in the test with SN12C renal, 181 µM and > 250 µM; in the test with NCI-H522 lung, 155 µM and > 250 µM; in the test with SR leukemia, 194 µM; in the test with HT29 colon it was 240 µM and > 250 µM. Moreover, the TGI is above 233 µM in the test with ACHN renal; 231 µM and > 250 µM in the test with SF-295 CNS; 159 µM in the test with MOLT-4 leukemia; above 250 µM with MDA-MB-435. The GI50 was 0.0278 µM in the test with MOLT-4 leukemia; 0.0672 µM and 0.0441 µM with MDA-MB-435.
Regarding `O=C1c2cc(Cl)ccc2NC(=NC2CCCC2)C2CSCN12` (configuration not stated), the TGI with SK-OV-3 ovarian, with RXF 393 renal, in the test on SN12C renal, in the test with NCI-H522 lung, in the test with SR leukemia and in the test on HT29 colon was above 100 µM in each case. The TGI in the test with ACHN renal, in the test on SF-295 CNS, in the test on MOLT-4 leukemia and in the test with MDA-MB-435 was above 100 µM throughout.
For the molecule `CC(=O)OC12C3C4C1C1C2C3C41OC(C)=O` (configuration not stated), the TGI with SK-OV-3 ovarian, in the test with RXF 393 renal, in the test with SN12C renal, with NCI-H522 lung, with SR leukemia and in the test on HT29 colon was above 100 µM in each case. The TGI with ACHN renal, in the test on SF-295 CNS, in the test with MOLT-4 leukemia and with MDA-MB-435 was above 100 µM throughout.
Consider `O=C(O)CCS/C(=C\C(SCCC(=O)O)c1ccc(Cl)cc1)c1ccc(Cl)cc1` (configuration not stated), for which the TGI in the test with SK-OV-3 ovarian was above 100 µM; in the test on RXF 393 renal, above 100 µM; in the test with SN12C renal it was above 100 µM; in the test with NCI-H522 lung, above 100 µM; in the test on SR leukemia it was 78.5 µM; in the test with HT29 colon, above 100 µM. Also, the TGI in the test with ACHN renal, with SF-295 CNS, in the test with MOLT-4 leukemia and in the test with MDA-MB-435 was above 100 µM throughout.
As for `CC(C)(C)OC(=O)NC1CC2(C=C(Br)C(=O)C(Br)=C2)OC1=O` (configuration not stated), the TGI in the test on SK-OV-3 ovarian stood at 32.1 µM; in the test with RXF 393 renal it was 11.8 µM; with SN12C renal, 18.5 µM; with NCI-H522 lung, 3.92 µM; with SR leukemia, 4.18 µM; in the test with HT29 colon, 18.6 µM. The TGI in the test with ACHN renal came out at 10.8 µM; in the test on SF-295 CNS, 38.9 µM; in the test with MOLT-4 leukemia, 2.59 µM; with MDA-MB-435, 22.1 µM.
In the case of `Cc1ccc2c(c1)C(=O)c1nc(C)ccc1C2=O`, the TGI was above 100 µM with SK-OV-3 ovarian; above 100 µM with RXF 393 renal; 87.9 µM with SN12C renal; 74.2 µM in the test on NCI-H522 lung; above 100 µM with SR leukemia; 83 µM in the test on HT29 colon. Further, the TGI in the test with ACHN renal was above 100 µM; in the test with SF-295 CNS it was above 100 µM; in the test with MOLT-4 leukemia, above 100 µM; in the test with MDA-MB-435 it was 44 µM.
As to `O=C(O)CCC(=O)c1ccc2c(c1)C(C(=O)O)CC2` (configuration not stated), the TGI in the test on SK-OV-3 ovarian is above 100 µM; in the test with RXF 393 renal, 23.1 µM; in the test with SN12C renal it was above 100 µM; with NCI-H522 lung, above 100 µM; in the test on SR leukemia it was above 100 µM; in the test with HT29 colon it was above 100 µM. Also, the TGI in the test on ACHN renal, in the test with SF-295 CNS, in the test on MOLT-4 leukemia and in the test with MDA-MB-435 was above 100 µM throughout.
Take `CCOC(=O)c1c(N=P(c2ccccc2)(c2ccccc2)c2ccccc2)nnc(-c2ccccc2)c1-c1ccccc1`: the TGI in the test with SK-OV-3 ovarian, in the test on RXF 393 renal, in the test on SN12C renal, in the test with NCI-H522 lung, in the test on SR leukemia and in the test on HT29 colon was above 100 µM in each case. In addition, the TGI with ACHN renal, in the test with SF-295 CNS, in the test on MOLT-4 leukemia and in the test with MDA-MB-435 was above 100 µM throughout.
Turning to `COc1ccc(-n2[nH]nc(C(N)=O)c2=O)cc1`, the TGI in the test with SK-OV-3 ovarian, with RXF 393 renal, in the test with SN12C renal, in the test with NCI-H522 lung, with SR leukemia and with HT29 colon was above 100 µM each time. For the same molecule, the TGI in the test with ACHN renal, with SF-295 CNS, in the test with MOLT-4 leukemia and with MDA-MB-435 was above 100 µM in each case.
With `CC(C)(C)OC(=O)N(CCCCNC(=O)OCc1ccccc1)CCCNC(=O)OCc1ccccc1`, the TGI is above 100 µM in the test with SK-OV-3 ovarian; above 100 µM with RXF 393 renal; above 100 µM in the test on SN12C renal; 19.4 µM in the test with NCI-H522 lung; above 100 µM in the test on SR leukemia; above 100 µM in the test with HT29 colon. Further, the TGI in the test on ACHN renal is 22.6 µM; with SF-295 CNS, above 100 µM; in the test with MOLT-4 leukemia it was 30 µM; in the test with MDA-MB-435 it was above 100 µM.
As to `CC(C)CCC[C@@H](C)[C@H]1CC[C@H]2[C@@H]3CC[C@H]4C[C@@H](CCC=C(c5cc(Cl)c(O)c(C(=O)O)c5)c5cc(Cl)c(O)c(C(=O)O)c5)CC[C@]4(C)[C@H]3CC[C@]12C`, the TGI with SK-OV-3 ovarian, in the test with RXF 393 renal, with SN12C renal, in the test with NCI-H522 lung, with SR leukemia and in the test on HT29 colon was above 100 µM in each case. Further, the TGI with ACHN renal, with SF-295 CNS, in the test with MOLT-4 leukemia and with MDA-MB-435 was above 100 µM in each case.
